In ChEMBL document CHEMBL4834481, “1-Aminomethyl SAR in a novel series of flavagline-inspired eIF4A inhibitors: Effects of amine substitution on cell potency and in vitro PK properties” (Bioorg Med Chem Lett, 2021):
pEC50, pIC50: −log10 of the molar value.

Assays:
[1] = test system: MDA-MB-231; assay: Antiproliferative activity against human MDA-MB-231 cells; format: functional, cell-based
[2] = Permeability of the compound across apical to basolateral side in human Caco-2 cells; format: ADME, cell-based; conditions: read-out: permeability
[3] = Efflux ratio of permeability in human Caco-2 cells; format: ADME, cell-based
[4] = Metabolic stability of the compound in mouse liver microsomes assessed as parent compound remaining measured after 30 mins; format: ADME, Microsome; conditions: for remaining at 0.5 h: liver microsomes, read-out: Stabilty
[5] = Metabolic stability of the compound in rat liver microsomes assessed as parent compound remaining measured after 30 mins; format: ADME, Microsome; conditions: read-out: Stabilty
[6] = Metabolic stability of the compound in human liver microsomes assessed as parent compound remaining measured after 30 mins; format: ADME, Microsome; conditions: read-out: Stabilty
[7] = molecular target: hERG (KCNH2) (Homo sapiens, UniProt Q12809); assay: Inhibition of human ERG at 10 uM by automated patch method relative to control
Sequence of hERG (KCNH2) (Q12809 whole entry): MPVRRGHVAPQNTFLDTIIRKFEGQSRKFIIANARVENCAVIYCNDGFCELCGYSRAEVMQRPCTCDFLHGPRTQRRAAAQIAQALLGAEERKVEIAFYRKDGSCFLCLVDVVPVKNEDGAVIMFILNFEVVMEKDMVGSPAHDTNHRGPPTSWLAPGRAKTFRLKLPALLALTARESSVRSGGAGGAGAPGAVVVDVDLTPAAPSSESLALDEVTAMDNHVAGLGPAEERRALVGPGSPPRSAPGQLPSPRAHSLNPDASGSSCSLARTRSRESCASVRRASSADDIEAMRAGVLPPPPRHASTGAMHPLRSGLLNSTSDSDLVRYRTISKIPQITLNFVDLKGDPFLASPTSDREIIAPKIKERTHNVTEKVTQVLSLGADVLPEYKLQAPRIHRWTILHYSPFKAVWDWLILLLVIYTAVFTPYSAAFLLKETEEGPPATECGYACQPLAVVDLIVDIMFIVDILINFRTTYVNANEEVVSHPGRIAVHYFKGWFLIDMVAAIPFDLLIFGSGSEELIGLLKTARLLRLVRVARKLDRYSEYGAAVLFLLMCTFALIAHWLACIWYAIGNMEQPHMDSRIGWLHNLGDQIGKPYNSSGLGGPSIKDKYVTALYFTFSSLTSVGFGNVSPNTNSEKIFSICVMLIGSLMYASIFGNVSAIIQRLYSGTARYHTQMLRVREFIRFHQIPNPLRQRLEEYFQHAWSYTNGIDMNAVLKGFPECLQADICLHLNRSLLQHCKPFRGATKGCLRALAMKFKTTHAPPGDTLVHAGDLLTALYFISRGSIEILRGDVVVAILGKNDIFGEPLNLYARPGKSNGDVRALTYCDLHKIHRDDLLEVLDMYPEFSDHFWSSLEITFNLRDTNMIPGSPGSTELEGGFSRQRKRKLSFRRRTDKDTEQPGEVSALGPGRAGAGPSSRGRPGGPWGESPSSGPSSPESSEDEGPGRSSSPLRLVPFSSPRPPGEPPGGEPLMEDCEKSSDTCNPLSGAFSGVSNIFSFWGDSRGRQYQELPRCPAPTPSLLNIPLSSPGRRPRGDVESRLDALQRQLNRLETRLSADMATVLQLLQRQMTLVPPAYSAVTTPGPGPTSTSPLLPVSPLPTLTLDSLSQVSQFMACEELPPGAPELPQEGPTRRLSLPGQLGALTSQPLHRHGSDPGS

[8] = molecular target: T1, Eukaryotic initiation factor 4A-I (Homo sapiens, UniProt P60842); assay: Inhibition of eIF4A (unknown origin) assessed as inhibition of translation of RNA featuring highly structured 5'-UTR of c-Myc
T1 sequence (P60842 whole entry): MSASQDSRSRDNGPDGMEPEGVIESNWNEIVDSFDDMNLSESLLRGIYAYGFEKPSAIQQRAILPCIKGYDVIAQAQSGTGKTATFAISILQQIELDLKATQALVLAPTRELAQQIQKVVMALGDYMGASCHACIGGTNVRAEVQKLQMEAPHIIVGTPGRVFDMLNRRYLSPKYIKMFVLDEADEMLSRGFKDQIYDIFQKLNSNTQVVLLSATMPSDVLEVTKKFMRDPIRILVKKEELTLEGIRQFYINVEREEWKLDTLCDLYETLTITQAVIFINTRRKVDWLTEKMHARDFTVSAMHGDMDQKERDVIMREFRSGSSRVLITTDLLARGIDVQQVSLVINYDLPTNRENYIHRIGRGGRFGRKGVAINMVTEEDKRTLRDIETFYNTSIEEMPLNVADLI

[9] = molecular target: T1, Eukaryotic initiation factor 4A-I; assay: Inhibition of eIF4A (unknown origin) assessed as inhibition of translation of RNA featuring short 5'-UTR of tubulin
[10] = organism: Homo sapiens; assay: Selectivity ratio of IC50 for inhibition of eIF4A (unknown origin) assessed as inhibition of translation of RNA featuring short 5'-UTR of tubulin to IC50 for inhibition of eIF4A (unknown origin) assessed as inhibition of translation of RNA featuring highly structured 5'-UTR of c-Myc
[11] = test system: MDA-MB-231; assay: Antiproliferative activity against human MDA-MB-231 cells assessed as inhibition of cell viability incubated for 72 hrs by CellTiter-Glo assay; format: functional, cell-based; conditions: MDA-MB-231, 72 h

Row | SMILES | pEC50 [1] | Papp A→B [2] | efflux ratio [3] | remaining at 0.5 h [4] | remaining at 0.5 h [5] | remaining at 0.5 h [6] | inhibition at 10 µM [7] | pIC50 [8] | pIC50 [9] | Ratio IC50 [10] | pEC50 [11] | Stabilty ([4]; microsomes, 0.5 h)
1 | COc1cncc2c1[C@]1(O)[C@@H](CNC3COC3)[C@H](CO)[C@@H](c3ccccc3)[C@]1(c1ccc(C#N)cc1)O2 (racemic) | 7.54 | 0.73 ×10⁻⁶ cm/s | 12 | 24% | 18% | 61% | < 10% |  |  |  |  | 
2 | COc1cncc2c1[C@]1(O)[C@@H](CN)[C@H](CO)[C@@H](c3ccccc3)[C@]1(c1ccc(C#N)cc1)O2 (racemic) | 6.97 | < 0.07 ×10⁻⁶ cm/s | > 4 | 83% | 97% | 95% | < 10% |  |  |  |  | 
3 | COc1cncc2c1[C@]1(O)[C@@H](CNCC(F)F)[C@H](CO)[C@@H](c3ccccc3)[C@]1(c1ccc(C#N)cc1)O2 (racemic) | 7.68 | 0.82 ×10⁻⁶ cm/s | 6.7 | 1% | 0% | 19% | 27% |  |  |  |  | 
4 | COc1cncc2c1[C@]1(O)[C@@H](CN3CC4(COC4)C3)[C@H](CO)[C@@H](c3ccccc3)[C@]1(c1ccc(C#N)cc1)O2 (racemic) | 7.72 | 0.19 ×10⁻⁶ cm/s | 86 | 67% | 48% | 92% |  |  |  |  |  | 
5 | COc1cncc2c1[C@]1(O)[C@@H](CN)[C@H](CO)[C@@H](c3ccccc3)[C@]1(c1ccc(Br)cc1)O2 (racemic) | 7.32 | 0.04 ×10⁻⁶ cm/s | 61 | 107% | 95% | 102% | 37% | 7.60 | 7.05 | 3.6 |  | 
6 | COc1cncc2c1[C@]1(O)[C@@H](CN(C)C)[C@H](CO)[C@@H](c3ccccc3)[C@]1(c1ccc(C#N)cc1)O2 (racemic) | 8.10 | 0.4 ×10⁻⁶ cm/s | 33 | 67% | 61% | 77% | 79% |  |  |  |  | 
7 | N#Cc1ccc([C@@]23Oc4cc(Cl)cnc4[C@]2(O)[C@@H](CN)C[C@H]3c2ccccc2)cc1 (racemic) |  |  |  |  |  |  |  |  |  |  | 7.55 | 
8 | COc1cncc2c1[C@]1(O)[C@@H](CN)C[C@@H](c3ccccc3)[C@]1(c1ccc(C#N)cc1)O2 (racemic) | 7.96 | 0.13 ×10⁻⁶ cm/s | 58 | 108% | 85% | 102% | 54% | 8.25 | 7.66 | 3.9 |  | 
9 | COc1cncc2c1[C@]1(O)[C@@H](CN)C[C@@H](c3ccccc3)[C@]1(c1ccc(Br)cc1)O2 (racemic) | 7.82 | 0.43 ×10⁻⁶ cm/s | 13 |  | 58% | 99% |  | 8.30 | 7.68 | 4.2 |  | 123%
10 | COc1cncc2c1[C@]1(O)[C@@H](CN3CCOCC3)[C@H](CO)[C@@H](c3ccccc3)[C@]1(c1ccc(C#N)cc1)O2 (racemic) | 7.09 | 2.2 ×10⁻⁶ cm/s | 7 | 41% | 27% | 51% | < 10% |  |  |  |  | 
11 | COc1cncc2c1[C@]1(O)[C@@H](CNC3COC3)[C@H](CO)[C@@H](c3ccccc3)[C@]1(c1ccc(Br)cc1)O2 (racemic) | 8.10 |  |  |  |  |  |  | 8.64 | 7.96 | 4.8 |  | 
12 | COc1cncc2c1[C@]1(O)[C@@H](CN3CCOCC3)[C@H](CO)[C@@H](c3ccccc3)[C@]1(c1ccc(Br)cc1)O2 (racemic) | 7.41 |  |  | 1% | 0% | 6% | 12% | 8.00 | 7.49 | 3.2 |  | 
13 | COc1cncc2c1[C@]1(O)[C@@H](CNCc3ccnn3C)[C@H](CO)[C@@H](c3ccccc3)[C@]1(c1ccc(C#N)cc1)O2 (racemic) | 7.42 | 0.19 ×10⁻⁶ cm/s | 76 | 1% | 2% | 1% |  |  |  |  |  | 
